Results on one compound are retold here after ChEMBL document CHEMBL3259589, “Synthesis and radical-scavenging activity of a dimethyl catechin analogue” (Bioorg Med Chem Lett, 2014).

The nature of the experiment: Antioxidant activity assessed as galvinoxyl free radical scavenging activity measured as second order rate constant by spectrophotometry. Type of experiment: functional.

On to `Oc1cc(O)c2c(c1)O[C@H](c1ccc(O)c(O)c1)[C@@H](O)C2`, for which the K (10'1mol/dm3/s) amounted to 3.87.
